Reference: PMC6539678 (International Journal of Molecular Sciences, 2019)
Starred links: 1 amine or outer side, 2 acyl side, 3 side chain; linkers in the order of their positions; H or OH if unused. Non-standard residues stand in square brackets, D forms with d. Residues, ends and D or L forms follow the SMILES beside them. Groups on a side chain read outwards from the residue. *: point of attachment. PEG24 = NCCOCCOCCOCCOCCOCCOCCOCCOCCOCCOCCOCCOCCOCCOCCOCCOCCOCCOCCOCCOCCOCCOCCOCCOCCC(=O)O; X1 = O=C([C@H](Cc1ccc(-n2nnc3c2-c2ccccc2N([*:3])Cc2ccccc2-3)cc1)N[*:1])[*:2]; Pteroyl = Nc1nc2ncc(CNc3ccc(C(=O)*)cc3)nc2c(=O)[nH]1; Biotin = O=C1N[C@H]2[C@H](CS[C@H]2CCCCC(=O)*)N1; γGlu = O=C(O)[C@H](CCC(=O)[*:2])N[*:1]; βAla = NCCC(=O)O

Biological target: T1, folate receptor alpha (FRα) (Homo sapiens, UniProt P15328)
T1 construct: made in house
T1 sequence (P15328 25-257): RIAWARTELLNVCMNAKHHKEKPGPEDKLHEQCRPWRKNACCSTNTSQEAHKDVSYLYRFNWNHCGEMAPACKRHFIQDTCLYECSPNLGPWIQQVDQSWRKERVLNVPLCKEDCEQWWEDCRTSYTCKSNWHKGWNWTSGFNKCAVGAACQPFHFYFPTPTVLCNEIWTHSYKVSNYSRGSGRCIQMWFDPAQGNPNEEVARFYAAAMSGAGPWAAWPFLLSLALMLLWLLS
Assay: Biolayer interferometry (BLI) binding of folate and folate-peptide conjugates to FRα
Conditions: for kon: pH 7.4, read-out: ka (association rate constant); for koff: pH 7.4, read-out: kd (dissociation rate constant)
Experimental: All steps performed for purification and refolding of FRα were carried out according to our previous report. However, some different reagents were used. […] The inclusion bodies were solubilized and purified with 8 M urea instead of 6 M guanidine HCl.
The measurement procedure has been reported previously. […] To eliminate errors from non-specific binding of the analyte (FRα) on the SA biosensor chips, reference data with the same concentrations of analyte were also measured.
The obtained binding data were analyzed using a 1:1 local analysis mode applied with association and dissociation step corrections by the BLItz Pro1.2 software (ForteBio). The reference measurements were subtracted during data analysis to determine ka, kd and KD.

[1] = BLI (BLItz), 25 °C, 10 mM PBS pH 7.4, 0.5% BSA, 0.01% Tween 20, ligand immobilized via biotin on streptavidin sensor, 1:1 local analysis, 'Folate' = folate-PEG8-biotin control

Compound | kon | koff | ka (association rate constant) [1] | kd (dissociation rate constant) [1] | fold faster association constant (DSEZKAY relative to SEZKA) | fold faster dissociation constant (DSEZKAY relative to SEZKA) | fold lower KD (DSEZKAY relative to SEZKA)
CC[C@H](C)[C@H](NC(=O)[C@H](Cc1ccc(-n2nnc3c2-c2ccccc2N(C(=O)CCNC(=O)CC[C@H](NC(=O)c2ccc(NCc4cnc5nc(N)[nH]c(=O)c5n4)cc2)C(=O)O)Cc2ccccc2-3)cc1)NC(=O)[C@H](Cc1ccccc1)NC(=O)CNC(=O)CCOCCOCCOCCOCCOCCOCCOCCOCCOCCOCCOCCOCCOCCOCCOCCOCCOCCOCCOCCOCCOCCOCCOCCOCCNC(=O)CCCC[C@@H]1SC[C@@H]2NC(=O)N[C@@H]21)C(=O)N[C@@H](CCC(N)=O)C(=O)O [GFZIQ] ({Biotin-PEG24}-GF[X1]([βAla-γGlu-Pteroyl])IQ-OH; C-terminus assumed) | 411000 M⁻¹ s⁻¹ | 7.53e-05 s⁻¹ | – | – | – | – | –
C[C@H](NC(=O)[C@H](CCCCN)NC(=O)[C@H](Cc1ccc(-n2nnc3c2-c2ccccc2N(C(=O)CCNC(=O)CC[C@H](NC(=O)c2ccc(NCc4cnc5nc(N)[nH]c(=O)c5n4)cc2)C(=O)O)Cc2ccccc2-3)cc1)NC(=O)[C@H](CCC(=O)O)NC(=O)[C@H](CO)NC(=O)CCOCCOCCOCCOCCOCCOCCOCCOCCOCCOCCOCCOCCOCCOCCOCCOCCOCCOCCOCCOCCOCCOCCOCCOCCNC(=O)CCCC[C@@H]1SC[C@@H]2NC(=O)N[C@@H]21)C(=O)O [SEZKA] ({Biotin-PEG24}-SE[X1]([βAla-γGlu-Pteroyl])KA-OH; C-terminus assumed) | 89100 M⁻¹ s⁻¹ | 8.01e-05 s⁻¹ | – | – | – | – | –
Nc1nc(=O)c2nc(CNc3ccc(C(=O)N[C@@H](CCC(=O)O)C(=O)O)cc3)cnc2[nH]1 [Folate, reference compound] | – | – | 6.74e+06 M⁻¹ s⁻¹ | 0.00769 s⁻¹ | – | – | –
C[C@H](NC(=O)[C@H](CCCCN)NC(=O)[C@H](Cc1ccc(-n2nnc3c2-c2ccccc2N(C(=O)CCNC(=O)CC[C@H](NC(=O)c2ccc(NCc4cnc5nc(N)[nH]c(=O)c5n4)cc2)C(=O)O)Cc2ccccc2-3)cc1)NC(=O)[C@H](CCC(=O)O)NC(=O)[C@H](CO)NC(=O)[C@H](CC(=O)O)NC(=O)CCOCCOCCOCCOCCOCCOCCOCCOCCOCCOCCOCCOCCOCCOCCOCCOCCOCCOCCOCCOCCOCCOCCOCCOCCNC(=O)CCCC[C@@H]1SC[C@@H]2NC(=O)N[C@@H]21)C(=O)N[C@@H](Cc1ccc(O)cc1)C(=O)O [DSEZKAY] ({Biotin-PEG24}-DSE[X1]([βAla-γGlu-Pteroyl])KAY-OH; C-terminus assumed) | 1.1e+06 M⁻¹ s⁻¹ | 0.000265 s⁻¹ | – | – | 12 fold | 3 fold | 4 fold
